Columns and labels:
[1] = test system: mice subjected to middle cerebral artery occlusion; experiment: Intravenous injection of tPA into tPA-deficient or wild-type mice with intraluminal filament MCA occlusion; type: in vivo, mice (C57BL/6 or SV129)
Experimental: Wild-type and tPA-deficient male mice (on C57Black/6 and SV129 backgrounds) weighing 23-27 grams were housed in a 12 hour light/dark cycle and permitted food and water intake ad libitum. Transient ischemia/reperfusion was performed using the intravascular filament model to occlude the middle cerebral artery unilaterally for 2 or 3 hours followed by reperfusion for the remainder of the 24 hour period as described in Longa et al., Stroke 20, 84-91 (1989) and Soriano. et al. Ann. Neurol. 39, 618-624 (1996). Briefly, under isoflurane anesthesia, a 6.0 nylon filament coated with silicone was threaded into the lumen of the middle cerebral artery of mice (C57Black/6 and SVI29 backgrounds) to produce transient ischemia. After 2 or 3 hours of occlusion, the filament was gently withdrawn to allow tissue reperfusion. Body temperature was maintained at 36.5±1.0° C. […] Animals were sacrificed 24 hours after the onset of the insult as described in Huang et al. Science 265, 1883-1885 (1994) and Soriano, supra. Infarct volumes were digitally quantified on 1.5 mm thick coronal sections after correction for edema by measuring TTC staining, as described in Soriano, supra, Bederson et al., Stroke 17,472-476 (1986); Swanson et al., J. Cereb. Blood Flow Metab. 10, 290-293 (1990), Lin et al., Stroke 24, 117-121 (1993); Zhang, et al., Neurology 44, 1747-1751 (1994); and Chopp et al. Stroke 25, 869-876 (1994)). Infarct volume decreased from 116±8 mm^3 in control wild-type mice to 69±7 mm^3 in tPA-deficient mice (mean±s.e.m., n=19 mice), as shown in FIG. 1. Under these conditions, there is no thrombosis at the occluded site, so the absence of tPA would not contribute to damage via an enhanced clotting cascade.
To determine the effect of intravenous injection of tPA into tPA-deficient or wild-type mice (C57BL/6 or SV129), intravenous tPA was administered intravenously, 10% initially by bolus, followed by constant infusion over twenty to thirty minutes at 0.9-1.0 mg/kg (similar to rt-PA Stroke Study Group, N. EngL J. Med. 333, 1581-1587 (1995) and Hacke. et al. JAMA 274, 1017-1025 (1995). The formula for the carrier used to dilute tPA was obtained from the manufacturer (Genentech, San Francisco, Calif.) and was used as one of the control injections. The diluent consisted of 0.02 M arginine phosphate at pH 7.3 with 0.001% Tween. […] In wildtype, but not tPA deficient mice, ischemia induced an increase in tPA activity, as assessed by histological zymography. Briefly, wild-type or tPA deficient mice were subjected to 2 hours of focal ischemia. After 10 minutes of reperfusion, the animals were sacrificed and their brains frozen as described previously (Tsirka et al., Nature 377, 340-344 (1995)). Then, 12 μm consecutive coronal brain cryostat sections were subjected to histological zymography to visualize tPA activity with or without amiloride (1 mM, a specific urokinase [uPA] inhibitor) (Sappino et al J. Clin. Invest. 92, 679-685 (1993) and Rosenberg et al., Cereb. Blood Flow Metab. 16, 360-366 (1996)). The sections were overlaid with a milk-agarose substrate matrix containing 50 ug/ml of purified human plasminogen and 1 mg/ml amiloride. […]
Regional cerebral blood flow was also monitored by the laser Doppler flowmetry technique as described in Dimagl et al J. Cereb. […] Briefly, the initial reading of regional Cerebral Blood Flow (rCBF) was assigned a value of 100% and subsequent readings were expressed relative to this value. […]

complement C3 = complement C3 (Homo sapiens, UniProt P01024); experiment: complement C3 inhibitory IC50 of SHA; type: biochemical
[2] = Pharmacokinetics of SHA in blood and brain after i.p. injection; type: in vivo, Sprague-Dawley rats; conditions: 400 mg/kg i.p., rat
Experimental: SHA (400 mg/kg) was injected intraperitoneally (i.p.) into Sprague-Dawley rats. At fixed time intervals after injection, blood samples were collected, and perfused brain was removed and homogenized. Acidified blood and brain samples were extracted in ethyl acetate. SHA was quantitated by reverse phase HPLC at 310 nm, and compared to known amounts of standards that had been added to blood or brain tissue as shown in FIG. 4.
The time of SHA injection after the onset of ischemia or reperfusion can be systematically varied to determine other ranges in which therapeutic intervention is available using this drug.

[3] = test system: mice subjected to middle cerebral artery occlusion; experiment: Middle cerebral artery (MCA) occlusion stroke model, infarct volume with SHA; type: in vivo, C57BL/6 mice; conditions: 400 mg/kg i.p. twice (at occlusion and 1.5 h later), sacrifice at 24 hours, mean±SEM, n=3
Experimental: FIG. 5 is a graph depicting the infarct volume of C57BL/6 mice subjected to middle cerebral artery occlusion and treated with saline (Control, n=3) or SHA (SHA, n=3).
SHA was tested for its ability to prevent cytotoxic damage by using the middle cerebral artery (MCA) occlusion stroke model (Longa et al., supra). Briefly, this system involves anesthetizing mice with isoflurane and then maintaining the body temperature of the mice at 36±1° C. A 6.0 monofilament nylon suture with silicone-coated tip was then advanced into the internal carotid artery about 9 mm via the external carotid artery. Immediately after the filament was secured, SHA (400 mg/kg i.p.) or vehicle (normal saline) was injected. At 1.5 hours after the first injection, a second i.p. injection was given to the animal. 2 hours later the animals were re-anesthetized and the filament was removed to allow reperfusion. Cerebral blood flow, blood pressure, blood gases, pH, and serum glucose were monitored in these studies. At 24 hours the animals were sacrificed, brains removed and 1 mm thick brain section are cut on a vibratome. The brain slices were stained with 2% triphenyltetrazolium choloride. The infarct volume was obtained as described in Swanson et al., supra with results being (mean+SEM, n=3 in each group) 62.6±34.2 mm^3 in the vehicle-treated group versus 6.1±6.0 mm^3 in the SHA-treated group.

complement C3, sequence (P01024 23-1663, species assumed): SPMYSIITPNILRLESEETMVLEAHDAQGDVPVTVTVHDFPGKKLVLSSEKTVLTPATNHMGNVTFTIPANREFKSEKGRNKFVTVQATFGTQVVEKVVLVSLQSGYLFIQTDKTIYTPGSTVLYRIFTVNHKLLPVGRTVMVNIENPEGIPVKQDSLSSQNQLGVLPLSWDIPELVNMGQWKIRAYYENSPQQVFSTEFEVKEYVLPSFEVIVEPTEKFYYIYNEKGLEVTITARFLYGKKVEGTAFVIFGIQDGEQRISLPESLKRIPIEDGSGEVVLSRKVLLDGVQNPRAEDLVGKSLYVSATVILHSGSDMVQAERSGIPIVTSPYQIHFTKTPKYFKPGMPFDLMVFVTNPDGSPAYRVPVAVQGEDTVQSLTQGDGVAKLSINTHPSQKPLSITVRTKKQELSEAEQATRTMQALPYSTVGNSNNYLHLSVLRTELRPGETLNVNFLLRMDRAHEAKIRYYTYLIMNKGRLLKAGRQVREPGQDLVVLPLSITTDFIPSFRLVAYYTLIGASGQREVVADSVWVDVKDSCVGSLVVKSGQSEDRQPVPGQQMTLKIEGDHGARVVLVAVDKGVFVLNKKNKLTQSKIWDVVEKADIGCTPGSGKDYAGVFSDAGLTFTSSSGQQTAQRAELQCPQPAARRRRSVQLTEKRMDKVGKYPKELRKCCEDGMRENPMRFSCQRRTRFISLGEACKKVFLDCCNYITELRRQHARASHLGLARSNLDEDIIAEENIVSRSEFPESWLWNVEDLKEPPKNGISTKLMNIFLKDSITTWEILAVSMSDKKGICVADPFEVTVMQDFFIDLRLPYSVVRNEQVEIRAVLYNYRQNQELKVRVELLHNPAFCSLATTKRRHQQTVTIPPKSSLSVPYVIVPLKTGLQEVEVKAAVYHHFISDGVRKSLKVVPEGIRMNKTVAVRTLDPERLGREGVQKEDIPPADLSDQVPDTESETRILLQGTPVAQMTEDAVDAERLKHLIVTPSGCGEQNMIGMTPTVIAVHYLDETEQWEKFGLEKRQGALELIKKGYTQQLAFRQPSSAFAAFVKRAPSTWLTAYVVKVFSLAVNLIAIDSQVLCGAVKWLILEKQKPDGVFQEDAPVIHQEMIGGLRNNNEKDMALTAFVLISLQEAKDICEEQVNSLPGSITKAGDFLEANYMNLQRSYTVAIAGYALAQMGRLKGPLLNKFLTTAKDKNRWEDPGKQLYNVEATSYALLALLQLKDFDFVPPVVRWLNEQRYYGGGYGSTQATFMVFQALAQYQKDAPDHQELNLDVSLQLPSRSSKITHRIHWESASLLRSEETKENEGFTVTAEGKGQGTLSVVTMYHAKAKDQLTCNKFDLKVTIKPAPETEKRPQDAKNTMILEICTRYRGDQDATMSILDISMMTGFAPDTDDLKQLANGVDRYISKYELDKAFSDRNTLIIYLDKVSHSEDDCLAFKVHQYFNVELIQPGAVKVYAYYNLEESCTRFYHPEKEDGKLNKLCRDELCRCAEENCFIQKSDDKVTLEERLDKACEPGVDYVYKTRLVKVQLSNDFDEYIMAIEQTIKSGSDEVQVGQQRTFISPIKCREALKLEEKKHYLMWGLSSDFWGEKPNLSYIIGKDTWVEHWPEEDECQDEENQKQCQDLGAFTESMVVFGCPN

Compound: tPA: serine protease tissue plasminogen activator, thrombolytic agent, commercially available from Genentech
- hemorrhage or other bleeding diathesis at postmortem examination ([1]; tPA 0.9-1.0 mg/kg i.v., all animals): No hemorrhage or other bleeding diathesis occurred
- entry of tPA activity into the brain (histological zymography) ([1]; tPA-deficient mice, intravenous exogenous tPA): apparent entry of tPA activity into the brain
- increase in size of cerebral infarction ([1]; tPA-deficient mice, tPA 0.9-1.0 mg/kg i.v.): near doubling of the damage
- effect on size of the stroke with large cerebral infarcts ([1]; wild-type mice, 3 hours of vascular occlusion, versus control animals not receiving tPA): did not enhance the size of the stroke
- increase in size of cerebral infarction ([1]; wild-type mice, tPA 0.9-1.0 mg/kg i.v., 2 hour occlusion): 20-35%

Compound: O=C(NO)c1ccccc1O [SHA, salicylhydroxamic acid]
- IC50 (complement C3): 8.3 µM
- complement C3 inhibitory IC50, equivalent brain concentration (complement C3; equivalent of the IC50 expressed per g brain): 0.0013 mg SHA/g brain
- ability to cross the blood-brain barrier ([2]; normal brain): able to cross the blood-brain barrier quite effectively
- time after injection during which SHA concentration in blood and brain exceeds the complement C3 IC50 ([2]; blood and brain): 2 h
- time of peak concentration in blood and brain after drug administration ([2]; blood and brain): about 30 minutes
- infarct volume [3]: 6.1±6.0 mm^3
